Results on three compounds are retold here after PMC12615753, “Glutathione as a taste modulator: molecular mechanisms of interaction with umami and sweet taste receptors” (Food Chemistry: Molecular Sciences, 2025).

The test concerns the target T1, hTAS1R1 H71S/rTAS1R3 (Homo sapiens, UniProt Q7RTX1, H71S).
T1 construct: UniProtKB number Q7RTX1–1); expressed in transfected cells; host or cells: HEK293T/17 (ATCC CRL-11268)
T1 sequence (Q7RTX1 21-841 H71S): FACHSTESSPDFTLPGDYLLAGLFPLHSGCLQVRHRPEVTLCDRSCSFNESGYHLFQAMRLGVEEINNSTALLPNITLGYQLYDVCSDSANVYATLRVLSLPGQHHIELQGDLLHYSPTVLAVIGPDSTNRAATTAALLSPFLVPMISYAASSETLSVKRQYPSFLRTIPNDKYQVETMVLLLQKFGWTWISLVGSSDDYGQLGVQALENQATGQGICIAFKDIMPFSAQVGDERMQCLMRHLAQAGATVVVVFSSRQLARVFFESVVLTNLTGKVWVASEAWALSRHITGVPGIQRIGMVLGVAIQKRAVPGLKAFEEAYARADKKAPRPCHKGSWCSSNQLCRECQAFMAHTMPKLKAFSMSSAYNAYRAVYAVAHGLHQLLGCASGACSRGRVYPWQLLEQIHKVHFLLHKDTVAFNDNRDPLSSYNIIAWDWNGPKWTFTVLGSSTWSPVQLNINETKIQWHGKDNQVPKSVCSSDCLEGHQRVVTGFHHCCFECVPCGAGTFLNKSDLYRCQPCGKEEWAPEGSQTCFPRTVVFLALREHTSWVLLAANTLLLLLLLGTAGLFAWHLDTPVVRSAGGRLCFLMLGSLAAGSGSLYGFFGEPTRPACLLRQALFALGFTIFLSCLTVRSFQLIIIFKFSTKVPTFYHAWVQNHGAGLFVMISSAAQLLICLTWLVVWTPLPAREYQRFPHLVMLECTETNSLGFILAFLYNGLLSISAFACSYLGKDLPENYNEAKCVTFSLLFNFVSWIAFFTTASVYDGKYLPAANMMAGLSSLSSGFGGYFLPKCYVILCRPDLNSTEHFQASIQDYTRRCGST
T1 sequence (Q923K1 21-858 partner): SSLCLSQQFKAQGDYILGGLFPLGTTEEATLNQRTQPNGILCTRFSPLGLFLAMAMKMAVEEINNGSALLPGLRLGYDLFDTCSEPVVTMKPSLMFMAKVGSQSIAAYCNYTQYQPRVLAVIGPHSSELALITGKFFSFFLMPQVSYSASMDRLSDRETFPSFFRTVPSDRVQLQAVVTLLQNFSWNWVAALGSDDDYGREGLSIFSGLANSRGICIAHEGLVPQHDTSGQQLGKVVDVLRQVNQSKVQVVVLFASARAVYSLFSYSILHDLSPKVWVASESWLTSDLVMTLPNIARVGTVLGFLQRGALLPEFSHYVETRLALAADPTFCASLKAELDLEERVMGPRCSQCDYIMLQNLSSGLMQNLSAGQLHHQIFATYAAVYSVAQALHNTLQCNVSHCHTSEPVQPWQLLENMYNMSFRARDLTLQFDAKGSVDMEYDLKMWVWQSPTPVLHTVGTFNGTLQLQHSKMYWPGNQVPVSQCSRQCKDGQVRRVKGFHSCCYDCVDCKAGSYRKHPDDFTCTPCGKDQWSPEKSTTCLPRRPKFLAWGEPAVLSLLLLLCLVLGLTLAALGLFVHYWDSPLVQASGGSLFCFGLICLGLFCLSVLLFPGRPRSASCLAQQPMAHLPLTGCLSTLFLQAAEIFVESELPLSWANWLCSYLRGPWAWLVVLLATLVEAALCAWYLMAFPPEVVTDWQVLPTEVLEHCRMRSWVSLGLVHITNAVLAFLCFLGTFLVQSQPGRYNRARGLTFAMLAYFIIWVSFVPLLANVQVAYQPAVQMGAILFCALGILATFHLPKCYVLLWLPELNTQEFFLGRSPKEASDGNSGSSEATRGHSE
Put plainly: Calcium assay, hTAS1R1 mutant co-expressed with rTAS1R3. It is filed as cell-based, rat. The note with it: for response to the agonist alone, vs WT: H71S. An excerpt:
Chimeric Gα proteins, such as Gα16Gust44, Gα16Gi3 or Gα15i2, are widely used in the functional expression of TAS1R receptors ([Backes et al., 2015]; [Suess et al., 2015]; [Toda et al., 2021], [Toda et al., 2013], [Toda et al., 2018]; [Zhang et al., 2008]). Chimeric Gα15i2 (([Toda et al., 2013]), Supplementary data) was generated by replacing the last five residues of the C-terminal tail of rat Gα15i2 (EINLL) (UniProt number G3V6N8; https://www.uniprot.org/uniprot/) with the counterpart sequence from human GNAI2 (DCGLF) (UniProt number P04899-1) and cloning into the pcDNA3.1/Hygro vector (Invitrogen, Thermo Fisher Scientific, Illkirch, France) between the HindIII and NotI restriction sites, resulting in the plasmid pcDNA3.1-Gα15i2. Chimeric Gα16Gust44 construct have already been reported ([Raliou et al., 2011]). Briefly, Gα16Gust44 was generated by replacing the C-terminal of Gα16 with the C-terminal 44 residues of gustducin. As previously described, hTAS1R1 was amplified from human fungiform papillae cDNA and cloned and inserted into pcDNA3 (Invitrogen), generating pcDNA3-TAS1R1-WT (wild-type) ([Raliou et al., 2011]). […] The cDNA coding region of rTAS1R3 was synthesized with optimized-codon usage for human expression (Genewiz) and was cloned and inserted into the mammalian pcDNA4/myc-HisA (Invitrogen) expression vector between the EcoRI and NotI restriction sites, resulting in the plasmid pcDNA4-rTAS1R3. […] The sequence integrity of all the plasmid constructs was verified via automated DNA sequencing (Genewiz).
The hTAS1R1 mutants were co-expressed with the rTAS1R3 subunit in HEK293 cells. […] As a control, the functionality of the mutated receptors was checked after stimulation with S807 (Fig. S8), which interacts with TAS1R1-TMD ([Zhang et al., 2008]).

pEC50: −log10 of the molar value. “Also recorded” adds a separate entry of the source.

Regarding `N[C@@H](CCC(=O)N[C@@H](CS)C(=O)NCC(=O)O)C(=O)O` [GSH, γ-L-glutamyl-L-cysteinyl-glycine], the pEC50 is < 1.52 and the “response to the agonist alone, vs WT” value is “fully abolished; also recorded: completely abolished”.
On to `CCCC(CCC)NC(=O)c1ccc2c(c1)OCO2` [S807, N-(heptan-4-yl)benzo[d][1,3]dioxole-5-carboxamide, reference compound], for which the “response to the agonist alone, vs WT” value is “unaffected”.
For `N[C@@H](CCC(=O)O)C(=O)O` [L-Glu, L-glutamic acid, reference compound], the “response to the agonist alone, vs WT” value is given as “completely suppressed; also recorded: completely abolished”.
